From article PMC5761851, “Application of a phenotypic drug discovery strategy to identify biological and chemical starting points for inhibition of TSLP production in lung epithelial cells” (PLoS ONE, 2018) come the findings set out here.

A word on the inhibition: it is the percentage by which the read-out fell short of the control. The IC50 is the concentration at which inhibition is half-maximal.

Experiment in all cases: kinase selectivity panel
Common to all, as to type: biochemical

In assay [1] the target is T1, Plk3 (Homo sapiens, UniProt Q9H4B4).
T1 construct: purchased Eurofins Pharma Discovery Services (KinaseProfiler; Cerep BioPrint panel)
The following applies: read-out: percentage of control activity (POC), Plk3. Summed up: (§1)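 First, 125 representative kinases were exposed to 10 μM compound in duplicate; next, selected activities were titrated over 9 concentrations in duplicate, and IC50 values were calculated.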

In assay [2] the target is T2, PI3K (p120g) (Homo sapiens, UniProt P48736).
T2 construct: Eurofins Pharma Discovery Services (contract assay service)
The following applies: for remaining activity at 10 µM: read-out: percentage of control activity (POC), PI3K (p120g). Summed up:
as §1

The target in assay [3] is T3, Mer (Homo sapiens, UniProt Q12866).
T3 construct: purchased Eurofins Pharma Discovery Services (KinaseProfiler; Cerep BioPrint panel)
T3 sequence (Q12866 21-999): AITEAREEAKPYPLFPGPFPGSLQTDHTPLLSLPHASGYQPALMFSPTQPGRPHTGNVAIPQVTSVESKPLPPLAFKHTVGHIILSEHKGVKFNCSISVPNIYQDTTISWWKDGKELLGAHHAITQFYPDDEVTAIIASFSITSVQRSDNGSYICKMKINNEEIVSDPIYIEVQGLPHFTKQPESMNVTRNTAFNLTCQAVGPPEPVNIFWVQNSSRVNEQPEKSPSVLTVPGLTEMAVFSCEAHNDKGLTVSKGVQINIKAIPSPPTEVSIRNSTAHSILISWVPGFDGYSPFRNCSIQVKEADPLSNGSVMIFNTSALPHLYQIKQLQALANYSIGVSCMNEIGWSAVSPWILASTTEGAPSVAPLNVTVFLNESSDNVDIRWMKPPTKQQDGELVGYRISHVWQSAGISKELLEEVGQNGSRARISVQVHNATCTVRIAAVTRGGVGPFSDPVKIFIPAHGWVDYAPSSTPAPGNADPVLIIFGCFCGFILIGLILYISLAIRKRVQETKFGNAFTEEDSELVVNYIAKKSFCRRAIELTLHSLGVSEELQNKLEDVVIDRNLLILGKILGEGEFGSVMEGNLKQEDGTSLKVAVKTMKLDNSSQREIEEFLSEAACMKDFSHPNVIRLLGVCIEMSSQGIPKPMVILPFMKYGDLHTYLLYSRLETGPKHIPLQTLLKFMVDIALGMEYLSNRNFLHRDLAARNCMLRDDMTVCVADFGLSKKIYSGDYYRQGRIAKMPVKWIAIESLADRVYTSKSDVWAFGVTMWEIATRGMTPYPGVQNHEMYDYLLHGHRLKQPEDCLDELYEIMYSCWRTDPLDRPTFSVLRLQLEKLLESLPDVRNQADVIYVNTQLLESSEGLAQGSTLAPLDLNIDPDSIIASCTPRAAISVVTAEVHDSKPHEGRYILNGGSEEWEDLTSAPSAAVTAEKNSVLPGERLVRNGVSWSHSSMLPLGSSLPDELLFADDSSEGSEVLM
The following applies: read-out: percentage of control activity (POC), Mer. Summed up:
as §1

The target of assay [4] is T4, PKBα (Homo sapiens, UniProt P31749).
T4 construct: purchased Eurofins Pharma Discovery Services (KinaseProfiler; Cerep BioPrint panel)
The following applies: read-out: percentage of control activity (POC), PKBα. Summed up:
as §1

Assay [5] addresses T5, EphB4 (Homo sapiens, UniProt P54760).
T5 construct: purchased Eurofins Pharma Discovery Services (KinaseProfiler; Cerep BioPrint panel)
T5 sequence (P54760 16-987): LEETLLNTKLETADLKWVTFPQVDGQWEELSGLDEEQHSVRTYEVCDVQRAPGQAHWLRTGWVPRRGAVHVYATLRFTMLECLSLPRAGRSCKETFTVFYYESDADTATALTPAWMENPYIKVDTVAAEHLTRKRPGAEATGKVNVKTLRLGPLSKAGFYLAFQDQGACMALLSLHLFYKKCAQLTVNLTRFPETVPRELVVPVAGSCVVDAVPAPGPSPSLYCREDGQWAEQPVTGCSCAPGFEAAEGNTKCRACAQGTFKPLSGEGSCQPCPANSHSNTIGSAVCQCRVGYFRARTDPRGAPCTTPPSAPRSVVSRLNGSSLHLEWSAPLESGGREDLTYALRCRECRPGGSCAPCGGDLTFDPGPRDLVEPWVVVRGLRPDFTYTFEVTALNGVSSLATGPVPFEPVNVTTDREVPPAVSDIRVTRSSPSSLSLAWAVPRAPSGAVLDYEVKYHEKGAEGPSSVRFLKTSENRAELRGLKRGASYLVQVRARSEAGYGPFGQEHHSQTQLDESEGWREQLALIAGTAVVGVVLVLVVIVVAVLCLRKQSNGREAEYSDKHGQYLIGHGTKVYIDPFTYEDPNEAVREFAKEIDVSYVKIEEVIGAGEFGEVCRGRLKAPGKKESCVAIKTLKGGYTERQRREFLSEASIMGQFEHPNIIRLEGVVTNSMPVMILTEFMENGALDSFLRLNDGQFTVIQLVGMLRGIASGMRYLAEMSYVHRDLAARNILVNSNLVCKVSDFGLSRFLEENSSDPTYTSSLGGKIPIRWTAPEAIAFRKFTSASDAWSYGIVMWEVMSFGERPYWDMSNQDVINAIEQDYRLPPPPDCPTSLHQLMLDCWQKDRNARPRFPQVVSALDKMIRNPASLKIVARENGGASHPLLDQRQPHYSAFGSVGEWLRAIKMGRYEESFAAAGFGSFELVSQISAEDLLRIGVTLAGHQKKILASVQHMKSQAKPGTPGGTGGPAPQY
The following applies: read-out: percentage of control activity (POC), EphB4. The method in brief: as §1

Assay [6] addresses T6, PRAK (Homo sapiens, UniProt Q8IW41).
T6 construct: purchased Eurofins Pharma Discovery Services (KinaseProfiler; Cerep BioPrint panel)
T6 sequence (Q8IW41 1-473): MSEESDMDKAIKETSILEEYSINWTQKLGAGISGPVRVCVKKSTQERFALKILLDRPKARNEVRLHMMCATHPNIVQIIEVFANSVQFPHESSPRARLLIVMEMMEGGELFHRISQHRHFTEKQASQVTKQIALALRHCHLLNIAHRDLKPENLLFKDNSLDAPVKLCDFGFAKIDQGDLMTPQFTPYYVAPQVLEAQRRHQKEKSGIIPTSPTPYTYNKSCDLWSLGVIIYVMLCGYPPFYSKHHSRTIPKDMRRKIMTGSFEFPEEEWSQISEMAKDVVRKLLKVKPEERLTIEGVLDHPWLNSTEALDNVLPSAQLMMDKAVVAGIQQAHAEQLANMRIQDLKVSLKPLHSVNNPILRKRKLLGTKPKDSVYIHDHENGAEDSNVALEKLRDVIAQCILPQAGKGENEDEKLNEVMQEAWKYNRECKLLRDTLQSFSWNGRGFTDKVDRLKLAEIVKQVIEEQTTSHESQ
The following applies: read-out: percentage of control activity (POC), PRAK. The method in brief: as §1

The target of assay [7] is T7, MINK (Homo sapiens, UniProt Q8N4C8).
T7 construct: purchased Eurofins Pharma Discovery Services (KinaseProfiler; Cerep BioPrint panel)
The following applies: read-out: percentage of control activity (POC), MINK. Summed up: as §1

SMILES strings stand for the structures.

T4 sequence (P31749 whole entry): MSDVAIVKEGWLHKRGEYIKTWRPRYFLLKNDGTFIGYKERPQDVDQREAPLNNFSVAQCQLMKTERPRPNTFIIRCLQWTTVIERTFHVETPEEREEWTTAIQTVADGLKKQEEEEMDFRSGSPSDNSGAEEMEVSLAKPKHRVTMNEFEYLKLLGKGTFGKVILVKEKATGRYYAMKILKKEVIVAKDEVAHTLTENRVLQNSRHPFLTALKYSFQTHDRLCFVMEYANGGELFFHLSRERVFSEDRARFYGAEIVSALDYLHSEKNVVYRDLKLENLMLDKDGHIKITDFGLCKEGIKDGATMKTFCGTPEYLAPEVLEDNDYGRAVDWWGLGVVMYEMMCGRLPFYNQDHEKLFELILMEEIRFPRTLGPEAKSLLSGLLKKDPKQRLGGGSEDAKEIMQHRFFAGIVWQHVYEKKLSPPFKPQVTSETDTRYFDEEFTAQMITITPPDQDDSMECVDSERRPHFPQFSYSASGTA
T7 sequence (Q8N4C8 whole entry): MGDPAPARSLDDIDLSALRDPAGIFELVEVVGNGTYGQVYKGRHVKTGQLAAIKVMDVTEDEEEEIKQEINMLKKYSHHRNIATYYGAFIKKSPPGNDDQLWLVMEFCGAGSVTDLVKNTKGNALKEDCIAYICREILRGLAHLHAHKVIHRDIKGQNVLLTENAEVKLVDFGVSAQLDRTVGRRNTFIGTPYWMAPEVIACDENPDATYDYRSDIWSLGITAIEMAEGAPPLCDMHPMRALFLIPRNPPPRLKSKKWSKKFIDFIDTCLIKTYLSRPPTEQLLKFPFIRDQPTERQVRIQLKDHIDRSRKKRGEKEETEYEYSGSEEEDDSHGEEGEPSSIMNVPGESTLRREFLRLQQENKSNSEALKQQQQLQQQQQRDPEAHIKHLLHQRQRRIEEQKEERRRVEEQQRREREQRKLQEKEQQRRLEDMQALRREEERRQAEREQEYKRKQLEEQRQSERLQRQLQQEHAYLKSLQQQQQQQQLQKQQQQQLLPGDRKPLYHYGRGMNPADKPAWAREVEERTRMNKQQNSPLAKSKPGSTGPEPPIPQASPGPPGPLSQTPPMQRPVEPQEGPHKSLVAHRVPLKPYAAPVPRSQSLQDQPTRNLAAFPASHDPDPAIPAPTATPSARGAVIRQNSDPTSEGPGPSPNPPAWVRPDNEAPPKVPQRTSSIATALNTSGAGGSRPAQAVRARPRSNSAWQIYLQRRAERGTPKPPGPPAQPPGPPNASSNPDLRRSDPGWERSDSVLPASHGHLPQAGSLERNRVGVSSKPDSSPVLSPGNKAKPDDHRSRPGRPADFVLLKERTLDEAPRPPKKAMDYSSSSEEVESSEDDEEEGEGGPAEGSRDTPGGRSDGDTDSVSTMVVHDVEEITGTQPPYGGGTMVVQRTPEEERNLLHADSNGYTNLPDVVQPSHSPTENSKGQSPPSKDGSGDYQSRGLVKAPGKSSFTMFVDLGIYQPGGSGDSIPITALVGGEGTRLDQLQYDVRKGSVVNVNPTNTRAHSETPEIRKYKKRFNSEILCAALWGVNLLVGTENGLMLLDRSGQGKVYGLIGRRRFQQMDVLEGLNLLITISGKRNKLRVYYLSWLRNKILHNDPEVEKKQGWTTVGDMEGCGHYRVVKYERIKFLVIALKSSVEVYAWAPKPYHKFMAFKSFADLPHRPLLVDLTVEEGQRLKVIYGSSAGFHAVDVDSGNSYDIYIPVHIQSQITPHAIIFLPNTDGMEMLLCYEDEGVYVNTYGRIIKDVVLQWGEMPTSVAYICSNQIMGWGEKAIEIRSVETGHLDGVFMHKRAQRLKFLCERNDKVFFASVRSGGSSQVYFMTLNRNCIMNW
T2 sequence (P48736 whole entry): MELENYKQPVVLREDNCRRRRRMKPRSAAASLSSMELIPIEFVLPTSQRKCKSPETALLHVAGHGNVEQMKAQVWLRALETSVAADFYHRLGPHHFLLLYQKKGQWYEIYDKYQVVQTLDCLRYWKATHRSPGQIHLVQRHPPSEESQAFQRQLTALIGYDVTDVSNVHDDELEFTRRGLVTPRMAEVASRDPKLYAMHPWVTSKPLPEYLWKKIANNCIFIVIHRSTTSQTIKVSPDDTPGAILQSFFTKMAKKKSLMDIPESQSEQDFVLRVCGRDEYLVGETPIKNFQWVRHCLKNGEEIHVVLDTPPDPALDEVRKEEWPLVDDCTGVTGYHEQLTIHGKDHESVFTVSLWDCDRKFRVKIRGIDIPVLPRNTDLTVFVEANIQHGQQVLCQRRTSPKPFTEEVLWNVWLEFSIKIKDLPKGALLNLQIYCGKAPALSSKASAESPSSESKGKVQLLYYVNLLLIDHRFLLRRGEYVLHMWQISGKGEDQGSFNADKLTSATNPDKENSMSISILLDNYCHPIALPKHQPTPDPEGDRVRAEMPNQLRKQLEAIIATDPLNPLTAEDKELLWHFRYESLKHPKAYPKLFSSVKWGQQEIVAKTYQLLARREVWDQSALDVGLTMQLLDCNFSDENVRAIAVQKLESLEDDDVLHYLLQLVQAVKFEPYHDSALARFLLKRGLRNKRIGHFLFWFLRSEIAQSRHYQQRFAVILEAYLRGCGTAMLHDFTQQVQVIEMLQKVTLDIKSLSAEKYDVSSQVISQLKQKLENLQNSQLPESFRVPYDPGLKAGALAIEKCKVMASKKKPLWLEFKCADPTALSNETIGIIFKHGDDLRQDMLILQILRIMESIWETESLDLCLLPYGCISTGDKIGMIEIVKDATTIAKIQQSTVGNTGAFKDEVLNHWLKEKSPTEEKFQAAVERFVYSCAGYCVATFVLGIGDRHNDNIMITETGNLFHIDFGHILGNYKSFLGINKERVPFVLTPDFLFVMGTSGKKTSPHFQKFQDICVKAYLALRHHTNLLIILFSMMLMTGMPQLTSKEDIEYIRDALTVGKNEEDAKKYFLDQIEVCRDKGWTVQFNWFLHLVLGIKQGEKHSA
T1 sequence (Q9H4B4 whole entry): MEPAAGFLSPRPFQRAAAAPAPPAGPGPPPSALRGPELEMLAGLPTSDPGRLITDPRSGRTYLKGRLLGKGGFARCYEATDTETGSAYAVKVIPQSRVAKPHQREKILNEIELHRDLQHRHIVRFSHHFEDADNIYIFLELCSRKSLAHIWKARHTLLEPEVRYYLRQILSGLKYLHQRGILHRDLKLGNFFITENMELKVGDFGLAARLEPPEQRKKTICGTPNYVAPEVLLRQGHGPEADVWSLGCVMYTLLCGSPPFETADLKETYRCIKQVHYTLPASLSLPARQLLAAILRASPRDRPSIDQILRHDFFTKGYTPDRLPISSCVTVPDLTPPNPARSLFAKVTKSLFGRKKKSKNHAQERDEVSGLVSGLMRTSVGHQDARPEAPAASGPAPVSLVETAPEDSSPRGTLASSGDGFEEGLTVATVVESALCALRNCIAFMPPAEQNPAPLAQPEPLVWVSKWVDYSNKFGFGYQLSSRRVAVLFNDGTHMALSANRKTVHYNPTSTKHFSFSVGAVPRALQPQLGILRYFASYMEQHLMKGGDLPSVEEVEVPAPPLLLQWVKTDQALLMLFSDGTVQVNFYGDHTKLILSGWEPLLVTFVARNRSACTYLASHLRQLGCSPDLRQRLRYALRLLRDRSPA

As for `CC(C)(C)N1CCC(c2cc(-c3ccc(F)cc3Cl)c3cc[n+]([O-])c(-c4c(Cl)cccc4Cl)c3n2)CC1` [compound 2], the remaining activity at 10 µM in assay [1] amounted to 111%; in assay [2] (10 μM), 92%; in assay [3], 95%; in assay [4] it was 95%; in assay [5] it was 91%; in assay [6] it was 107%. Moreover, the remaining activity at 10 µM in assay [7] is 104%.

Regarding `Cc1ccc(C(=O)NCC2CC2)cc1-c1ccc2c(c1)NC(=O)C21CCCC1` [compound 3], the remaining activity at 10 µM in assay [1] came to 101%; in assay [2] (10 μM), 85%; in assay [3] it was 96%; in assay [4], 91%; in assay [5], 105%; in assay [6], 65%. In assay [7], the remaining activity at 10 µM stood at 93%.

Take `Cn1cc(-c2cccc(-c3nc(C(=O)NC4C5CC6CC4CC(O)(C6)C5)c(N)nc3N)c2)cn1` (stereo not shown) [compound 4]: the remaining activity at 10 µM was 95% in assay [1]; 33% in assay [2] (10 μM); 74% in assay [3]; 96% in assay [4]; 99% in assay [5]; 83% in assay [6]. For the same compound, the remaining activity at 10 µM in assay [7] came to 94%. The inhibition at 10 µM in assay [2] (10 μM, read-out: inhibition of PI3K (p120γ)) turned out to be 67%. For the same compound, the concentration for half-maximal inhibition (IC50) in assay [2] (biochemical dose response, duplicate, read-out: Inhibition of indicated activity (IC50, μM): PI3K (p120γ)) stood at 4.78 µM.

On to `CS(=O)(=O)N1CCN(c2ccc(Nc3ncc(C(N)=O)c(NC4CC4)n3)cc2)CC1` [compound 5], for which the remaining activity at 10 µM in assay [1] stood at 63%; in assay [2] (10 μM) it was 86%; in assay [3], 1%; in assay [4] it was 86%; in assay [5], 36%; in assay [6] it was 85%. Further, in assay [7], the remaining activity at 10 µM came out at 14%.

Regarding `COc1c(NC(=O)c2ccc(C)c(-c3nnc4c(NCC(C)(C)C)nccn34)c2)cc(C(C)(C)C)cc1NS(C)(=O)=O` [compound 7, reference compound], the remaining activity at 10 µM in assay [1] is 104%; in assay [2] (10 μM) it was 86%; in assay [3], 100%; in assay [4], 99%; in assay [5], 92%; in assay [6], 56%. Besides, the remaining activity at 10 µM in assay [7] was 110%.
